Experimental data: patent publication US9217743B2, “Screening method utilizing thalidomide-targeting factor” (Tokyo Institute of Technology, priority 2009, dated 2015)
Entries after “also recorded” stand apart in the source; their conditions may differ.

Key:
shh = experiment: Whole-mount in situ hybridization of zebrafish fin buds; format: in vivo; details: thalidomide-treated 48-hpf embryos
From the text: (§1) To obtain a clue to the pathway(s) downstream of CRBN and thalidomide, the present inventors analyzed well-known key molecules in fin development. Sonic hedgehog (Shh) is expressed in the zone of polarizing activity (ZPA) and is responsible for anteroposterior patterning of the limb and fin (Cited Literature 27), whereas Fgf8 is expressed in the apical ectodermal ridge (AER) of the limb and fin and is necessary for outgrowth of the limb and fin along the proximodistal axis. […] Thus, an inhibitor of FGF8 production is a possible downstream target of thalidomide and the CRBN-containing E3 complex.
(§2) This assay was carried out in accordance with Cited Literature 41. Antisense probe for zcrbn mRNA was directed against the 5′-coding region of 513 bp. Antisense probe for zcul4a was directed against the 3′ untranslated region (3′ UTR) of 590 bp. Probes for shh and fgf8 were kindly provided by Dr. Krauss and Dr. Thisse, respectively. To increase permeability of probes, fixed embryos were incubated with PBS containing 0.1% Tween-20 and […] proteinase K for two minutes at room temperature.

fgf8a = experiment: as above; format: in vivo
From the text: as §1, §2

shh expression (shh): no change
fgf8a expression (fgf8a; thalidomide-treated embryos injected with zCrbn YW/AA): restored
Compound: O=C1CCC(N2C(=O)c3ccccc3C2=O)C(=O)N1 (stereo not drawn) [thalidomide]
fgf8a expression (fgf8a; thalidomide-treated 48-hpf embryos): reduced or absent; also recorded: severely reduced
